Test results from patent US6479487B1, “6, 9-disubstituted 2-[trans-(4-aminocyclohexyl)amino] purines” (Aventis Pharmaceuticals Inc., priority 1998, dated 2002).
Values joined by “and” are separate entries in the source; they are usually repeats but may differ in a detail not shown here. Equal entries are not always repeated. Structures can show the parent of a compound that is named as a salt. Where two headings read alike, the source gives them in different places.

What was measured:
[1] = target: T1, cdk4/cyclin D1 (Homo sapiens, UniProt P11802); assay: Cyclin-dependent Kinase 4 Assay (cdk4/cyclin D1, GST-Rb substrate); assay type: biochemical; settings: cdk4/cyclin D1 insect cell lysate, 10 μM ATP, 30 min at 37° C., several values = separate determinations, read-out: CDK4 Inhibition IC50
T1 construct: made in house; host or cells: Sf9 insect cells (Bac-to-Bac baculovirus, pFastBac)
How it was run: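 Insect-cell lysate of coexpressed cdk4/cyclin D1 (0.1 μg) acts on GST-Rb (0.5 μg) bound to glutathione-Sepharose, in 50 mM HEPES pH 7.5, 10 mM MgCl2, 1 mM EGTA. Reaction runs 30 min at 37 °C, then is stopped by filtration and TNEN washes. Rb phosphorylation read by scintillation counting; IC50 derived.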

[2] = system: PC-3; assay: In vitro tumor cell proliferation, PC-3; assay type: cell-based, human; settings: many values given with an undefined *, read-out: In vitro Tumor Cell Proliferation (IC50, μM) Prostate PC-3
How it was run: (§1)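 Two read-outs were used: sulforhodamine B after 3 + 4 days of drug with re-dosing at medium change, or CyQUANT after 3 days of drug and freezing of plates at −80° C for at least 30 minutes.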

[3] = system: HT-29; assay: In vitro tumor cell proliferation, HT-29; assay type: cell-based, human; settings: many values given with an undefined *, read-out: In vitro Tumor Cell Proliferation (IC50, μM) Colon HT-29
How it was run: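 HT-29 cells seeded overnight at 37° C, then exposed to drug for 3 days, refed with fresh drug-containing medium for 4 more days. Proliferation read by sulforhodamine B staining after TCA fixation; alternatively by CyQUANT after freezing plates at −80° C following 3 days' drug exposure.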

[4] = system: A549; assay: In vitro tumor cell proliferation, A549; assay type: cell-based, human; settings: many values given with an undefined *, read-out: In vitro Tumor Cell Proliferation (IC50, μM) Lung A549
How it was run: as §1

[5] = system: MDA-MB-435; assay: In vitro tumor cell proliferation, MDA-MB-435; assay type: cell-based; settings: values given with an undefined *, read-out: In vitro Tumor Cell Proliferation (IC50, μM) Breast MDA-MB-435
How it was run: as §1

[6] = system: MDA-MB-231; assay: In vitro tumor cell proliferation, MDA-MB-231; assay type: cell-based, human; settings: sulforhodamine B or CyQUANT assay, many values given with an undefined *, read-out: In vitro Tumor Cell Proliferation (IC50, μM) Breast MDA-MB-231
How it was run: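 Cells plated overnight at 37 °C, then exposed to drug for 3 days, refed with fresh drug and incubated 4 more days. Read-out by sulforhodamine B staining after TCA fixation; alternatively, CyQUANT after 3-day drug exposure and freezing at −80 °C.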

[7] = system: DMS-114; assay: In vitro tumor cell proliferation, DMS-114; assay type: cell-based, human; settings: many values given with an undefined *, read-out: In vitro Tumor Cell Proliferation (IC50, μM) Lung DMS-114
How it was run: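 Human small cell lung carcinoma DMS-114 cells plated overnight, then drug-treated for 3 days, medium and drug renewed, and incubated 4 more days. Growth read by sulforhodamine B staining after TCA fixation; alternatively by CyQUANT after 3 days' drug exposure and freezing at −80 °C.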

[8] = system: DU145; assay: In vitro tumor cell proliferation, DU145; assay type: cell-based, human; settings: many values given with an undefined *, read-out: In vitro Tumor Cell Proliferation (IC50, μM) Prostate DU145
How it was run: as §1

[9] = target: T2, cdk2/cyclin E (Homo sapiens, UniProt P24941); assay: Cyclin-Dependent Kinase 2 Assay (cdk2/cyclin E, GST-Rb substrate); assay type: biochemical; settings: recombinant cdk2/cyclin E, 10 μM ATP, 30 min at 30° C., several values in a cell = separate determinations, read-out: CDK-2 Inhibition IC50
T2 construct: made in house; host or cells: insect cells (baculovirus co-infection)
Experimental: Substrate: GST-Rb as described above for cdk4/cyclin D1
Assay conditions for cdk2/cyclin E were identical to those for cdk4/cyclin D1 including the substrate. The concentration of recombinant cdk2/cyclin E in the assay was 0.1 μg per 100 μl assay. Incubation was for 30 min at 30° C.

[10] = system: Colo-205; assay: In vitro tumor cell proliferation, Colo-205; assay type: cell-based; settings: values given with an undefined *, read-out: In vitro Tumor Cell Proliferation (IC50, μM) Colon Colo-205
How it was run: as §1

[11] = Homo sapiens, MDA-MB-435, MDA-MB-435
[12] = Homo sapiens, MDA-MB-231, MDA-MB-231
[13] = Homo sapiens, COLO 205, Colo-205

T1 sequence (P11802 whole entry): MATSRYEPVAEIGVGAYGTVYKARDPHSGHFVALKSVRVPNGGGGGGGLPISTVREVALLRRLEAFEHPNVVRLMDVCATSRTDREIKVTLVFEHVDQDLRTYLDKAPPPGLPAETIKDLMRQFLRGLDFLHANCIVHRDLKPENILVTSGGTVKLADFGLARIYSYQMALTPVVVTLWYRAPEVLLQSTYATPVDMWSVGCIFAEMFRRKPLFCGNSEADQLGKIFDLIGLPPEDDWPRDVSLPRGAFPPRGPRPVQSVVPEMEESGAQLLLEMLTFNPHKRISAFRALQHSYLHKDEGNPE
T1 sequence (P24385 whole entry partner): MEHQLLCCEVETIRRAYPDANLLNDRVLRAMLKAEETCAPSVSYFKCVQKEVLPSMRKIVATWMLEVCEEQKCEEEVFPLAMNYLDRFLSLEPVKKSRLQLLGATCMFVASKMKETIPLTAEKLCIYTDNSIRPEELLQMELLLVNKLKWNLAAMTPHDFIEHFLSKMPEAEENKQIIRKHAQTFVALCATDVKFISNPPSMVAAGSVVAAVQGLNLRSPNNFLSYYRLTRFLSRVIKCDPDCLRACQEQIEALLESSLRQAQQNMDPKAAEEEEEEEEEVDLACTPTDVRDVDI

`COc1cc(CN2CCC(Nc3nc(N[C@H]4CC[C@H](N)CC4)nc4c3ncn4C3CCCC3)CC2)cc(OC)c1` [Example 147-c, 2-[Trans-(4-aminocyclohexyl)amino]-6-[4-[1-(3,5-dimethoxybenzyl)]piperidinylamino-9-cyclopentylpurinetrihydrochloride] was tested, and the IC50 [1] was 670 nM and 600 nM, the IC50 ([2]; Homo sapiens, PC-3, PC-3) was 0.22 µM and the IC50 ([2]; PC-3, trihydrochloride) was 0.33 µM. It also gave an IC50 ([3]; HT-29, trihydrochloride) of 0.3 µM, an IC50 ([3]; Homo sapiens, HT-29, HT-29) of 0.32 µM and an IC50 ([4]; A549, trihydrochloride) of 0.24 µM. It also gave an IC50 ([4]; Homo sapiens, A549, A549) of 0.18 µM, an IC50 [5, 11] of 0.33 µM and an IC50 ([5]; MDA-MB-435, trihydrochloride) of 0.34 µM. For the same compound, the IC50 [6, 12] was 0.23 µM, the IC50 ([6]; MDA-MB-231, trihydrochloride) was 0.27 µM and the IC50 ([7]; DMS-114, trihydrochloride) was 0.32 µM. It also gave an IC50 ([7]; Homo sapiens, DMS-114, DMS-114) of 0.3 µM, an IC50 ([8]; DU145, trihydrochloride) of 0.3 µM and an IC50 ([8]; Homo sapiens, DU-145, DU145) of 0.21 µM. The IC50 [9] was 560 nM and 270 nM and 450 nM, the IC50 ([10]; Colo-205, trihydrochloride) was 0.2 µM and the IC50 [10, 13] was 0.19 µM.
For `N[C@H]1CC[C@H](Nc2nc(NC3CCN(Cc4ccccc4OC(F)(F)F)CC3)c3ncn(C4CCCC4)c3n2)CC1` [Example 147-ab, 2-[Trans-(4-aminocyclohexyl)amino]-6-[4-[1-(2-trifluoromethoxybenzyl)]piperidinylamino]-9-cyclopentylpurine trihydrochloride], the IC50 [1] was 4500 nM and 2700 nM, the IC50 ([2]; Homo sapiens, PC-3, PC-3) was 0.69 µM and the IC50 ([3]; HT-29, trihydrochloride) was 0.62 µM. The IC50 ([3]; Homo sapiens, HT-29, HT-29) was 0.73 µM, the IC50 ([4]; A549, trihydrochloride) was 0.39 µM and the IC50 ([4]; Homo sapiens, A549, A549) was 0.33 µM. It also gave an IC50 [5, 11] of 0.84 µM, an IC50 ([5]; MDA-MB-435, trihydrochloride) of 0.91 µM and an IC50 [6, 12] of 0.62 µM. The IC50 ([6]; MDA-MB-231, trihydrochloride) was 0.7 µM, the IC50 ([7]; DMS-114, trihydrochloride) was 0.64 µM and the IC50 ([7]; Homo sapiens, DMS-114, DMS-114) was 0.74 µM. For the same compound, the IC50 ([8]; DU145, trihydrochloride) was 0.6 µM, the IC50 ([8]; Homo sapiens, DU-145, DU145) was 0.59 µM and the IC50 [9] was 250 nM and 900 nM. It also gave an IC50 ([10]; Colo-205, trihydrochloride) of 0.45 µM and an IC50 [10, 13] of 0.43 µM.
In the case of `N[C@H]1CC[C@H](Nc2nc(Nc3cccc(F)c3)c3ncn(C4CCCC4)c3n2)CC1` [Example 21, 2-[Trans-(4-aminocyclohexyl)amino]-6-(3-fluorophenylamino)-9-cyclopentylpurine dihydrochloride], the IC50 [1] is reported as 230 nM and 970 nM, the IC50 ([2]; Homo sapiens, PC-3, PC-3) is reported as 1.3 µM and the IC50 ([2]; PC-3, dihydrochloride) is reported as 0.7 µM. The IC50 ([3]; HT-29, dihydrochloride) was 1.7 µM, the IC50 ([3]; Homo sapiens, HT-29, HT-29) was 1.6 µM and the IC50 ([4]; A549, dihydrochloride) was 1 µM. It also gave an IC50 ([4]; Homo sapiens, A549, A549) of 0.6 µM, an IC50 [5, 11] of 1.9 µM and an IC50 ([5]; MDA-MB-435, dihydrochloride) of 2.3 µM. It also gave an IC50 [6, 12] of 1.3 µM, an IC50 ([7]; DMS-114, dihydrochloride) of 0.7 µM and an IC50 ([7]; Homo sapiens, DMS-114, DMS-114) of 1.1 µM. For the same compound, the IC50 ([8]; DU145, dihydrochloride) was 0.9 µM, the IC50 ([8]; Homo sapiens, DU-145, DU145) was 0.7 µM and the IC50 [9] was 82 nM and 80 nM. The IC50 ([10]; Colo-205, dihydrochloride) was 1.1 µM and the IC50 [10, 13] was 1.2 µM.
`N[C@H]1CC[C@H](Nc2nc(NC3CCN(Cc4c(Cl)cccc4Cl)CC3)c3ncn(C4CCCC4)c3n2)CC1` [Example 45, 2-[Trans-(4-aminocyclohexyl)amino]-6-[4-(1-(2,6-dichlorobenzyl))piperidinylamino]-9-cyclopentylpurine] showed an IC50 [1] of 6700 nM, an IC50 ([2]; Homo sapiens, PC-3, PC-3) of 0.63 µM and an IC50 ([2]; PC-3) of 0.74 µM. The IC50 ([3]; HT-29) was 0.55 µM, the IC50 ([3]; Homo sapiens, HT-29, HT-29) was 0.71 µM and the IC50 ([4]; A549) was 0.32 µM. The IC50 ([4]; Homo sapiens, A549, A549) was 0.46 µM, the IC50 [5, 11] was 0.96 µM and the IC50 ([5]; MDA-MB-435) was 0.75 µM. The IC50 [6, 12] was 0.89 µM, the IC50 ([6]; MDA-MB-231) was 0.71 µM and the IC50 ([7]; DMS-114) was 0.71 µM. For the same compound, the IC50 ([7]; Homo sapiens, DMS-114, DMS-114) was 1.3 µM, the IC50 ([8]; DU145) was 0.46 µM and the IC50 ([8]; Homo sapiens, DU-145, DU145) was 0.51 µM. For the same compound, the IC50 [9] was 1100 nM and 900 nM, the IC50 ([10]; Colo-205) was 0.48 µM and the IC50 [10, 13] was 0.53 µM.
`N[C@H]1CC[C@H](Nc2nc(NC3CCN(Cc4ccc(Cl)cc4Cl)CC3)c3ncn(C4CCCC4)c3n2)CC1` [Example 147-x, 2-[Trans-(4-aminocyclohexyl)amino]-6-[4-[1-(2,4-dichlorobenzyl)]piperidinylamino]-9-cyclopentylpurine trihydrochloride] was tested, and the IC50 [1] was 3800 nM and 3900 nM, the IC50 ([2]; Homo sapiens, PC-3, PC-3) was 0.54 µM and the IC50 ([2]; PC-3, trihydrochloride) was 0.65 µM. It also gave an IC50 ([3]; HT-29, trihydrochloride) of 0.6 µM, an IC50 ([3]; Homo sapiens, HT-29, HT-29) of 0.72 µM and an IC50 ([4]; A549, trihydrochloride) of 0.45 µM. It also gave an IC50 ([4]; Homo sapiens, A549, A549) of 0.44 µM, an IC50 [5, 11] of 0.75 µM and an IC50 ([5]; MDA-MB-435, trihydrochloride) of 0.92 µM. The IC50 [6, 12] was 0.85 µM, the IC50 ([6]; MDA-MB-231, trihydrochloride) was 0.67 µM and the IC50 ([7]; DMS-114, trihydrochloride) was 0.7 µM. For the same compound, the IC50 ([7]; Homo sapiens, DMS-114, DMS-114) was 1 µM, the IC50 ([8]; DU145, trihydrochloride) was 0.53 µM and the IC50 ([8]; Homo sapiens, DU-145, DU145) was 0.49 µM. It also gave an IC50 [9] of 320 nM, an IC50 ([10]; Colo-205, trihydrochloride) of 0.62 µM and an IC50 [10, 13] of 0.59 µM.
In the case of `N[C@H]1CC[C@H](Nc2nc(NNc3ccc(Cl)cc3Cl)c3ncn(C4CCCC4)c3n2)CC1` [Example 147, 2-[Trans-(4-aminocyclohexyl)amino]-6-(2,4-dichlorophenylhydrazino)-9-cyclopentylpurine dihydrochloride], the IC50 [1] is reported as 5700 nM and 6100 nM, the IC50 ([2]; Homo sapiens, PC-3, PC-3) is reported as 3.2 µM and the IC50 ([2]; PC-3, dihydrochloride) is reported as 2.3 µM. It also gave an IC50 ([3]; HT-29, dihydrochloride) of 2 µM, an IC50 ([3]; Homo sapiens, HT-29, HT-29) of 2.8 µM and an IC50 ([4]; A549, dihydrochloride) of 2.6 µM. For the same compound, the IC50 ([4]; Homo sapiens, A549, A549) was 2.7 µM, the IC50 [5, 11] was 5.6 µM and the IC50 ([5]; MDA-MB-435, dihydrochloride) was 6 µM. For the same compound, the IC50 [6, 12] was 5.1 µM, the IC50 ([6]; MDA-MB-231, dihydrochloride) was 3.2 µM and the IC50 ([8]; DU145, dihydrochloride) was 5.7 µM. It also gave an IC50 ([8]; Homo sapiens, DU-145, DU145) of 3.1 µM, an IC50 [9] of 268 nM and an IC50 ([10]; Colo-205, dihydrochloride) of 3.5 µM. It also gave an IC50 [10, 13] of 5.7 µM.
